Source: the NIST ThermoML archive (doi:10.1016/j.jct.2018.04.003)

Assay: mn = molality of the nth substance listed, in mol/kg
Conditions: 101.3 kPa, Liquid; for speed of sound: Frequency=2 MHz, Linear variable-path acoustic interferometer; for mass density: Pycnometric method

NNC(=O)c1ccncc1 [isonicotinic acid hydrazide] + O
Conditions	mass density [kg/m3]	speed of sound [m/s]
288.15 K, m1 = 0.0099	999.49	1466.6
288.15 K, m1 = 0.02	999.88	1467.3
288.15 K, m1 = 0.03	1000.26	1468
288.15 K, m1 = 0.0401	1000.64	1468.7
288.15 K, m1 = 0.0495	1001	1469.4
288.15 K, m1 = 0.055	1001.19	1469.8
288.15 K, m1 = 0.06	1001.38	1470.1
288.15 K, m1 = 0.065	1001.55	1470.5
288.15 K, m1 = 0.0708	1001.77	1470.9
288.15 K, m1 = 0.075	1001.92	1471.2
288.15 K, m1 = 0.0809	1002.12	1471.6
288.15 K, m1 = 0.0846	1002.25	1471.9
288.15 K, m1 = 0.0901	1002.45	1472.3
288.15 K, m1 = 0.0949	1002.62	1472.6
288.15 K, m1 = 0.1002	1002.81	1473
298.15 K, m1 = 0.0099	997.39	1497.4
298.15 K, m1 = 0.0197	997.69	1498.1
298.15 K, m1 = 0.0299	998.02	1498.8
298.15 K, m1 = 0.04	998.35	1499.6
298.15 K, m1 = 0.0499	998.67	1500.3
298.15 K, m1 = 0.055	998.83	1500.6
298.15 K, m1 = 0.0599	998.99	1500.9
298.15 K, m1 = 0.0649	999.15	1501.3
298.15 K, m1 = 0.0699	999.31	1501.6
298.15 K, m1 = 0.075	999.47	1502
298.15 K, m1 = 0.0797	999.61	1502.3
298.15 K, m1 = 0.085	999.78	1502.7
298.15 K, m1 = 0.0897	999.92	1503
298.15 K, m1 = 0.0949	1000.09	1503.4
298.15 K, m1 = 0.1006	1000.26	1503.8
308.15 K, m1 = 0.0099	994.3	1520.5
308.15 K, m1 = 0.0199	994.58	1521.3
308.15 K, m1 = 0.0301	994.85	1522
308.15 K, m1 = 0.04	995.12	1522.7
308.15 K, m1 = 0.0501	995.39	1523.5
308.15 K, m1 = 0.055	995.52	1523.9
308.15 K, m1 = 0.06	995.64	1524.2
308.15 K, m1 = 0.0649	995.76	1524.6
308.15 K, m1 = 0.0699	995.9	1525
308.15 K, m1 = 0.0751	996.03	1525.3
308.15 K, m1 = 0.0799	996.15	1525.7
308.15 K, m1 = 0.0851	996.28	1526.1
308.15 K, m1 = 0.09	996.41	1526.4
308.15 K, m1 = 0.095	996.53	1526.8
308.15 K, m1 = 0.1002	996.67	1527.2

[Cl-].[K+] [potassium chloride] + O
Conditions	mass density, 288.15 K [kg/m3]	mass density, 298.15 K [kg/m3]	mass density, 308.15 K [kg/m3]	speed of sound, 288.15 K [m/s]	speed of sound, 298.15 K [m/s]	speed of sound, 308.15 K [m/s]
m1 = 0.06	1002.26	1000.42	997.25	1467.4	1498.3	1522.2
m1 = 0.1	1003.48	1001.79	998.71	1469.6	1502.5	1525.1
